Results on two compounds are retold here after ChEMBL document CHEMBL2203135, “Novel progesterone receptor modulators: 4-aryl-phenylsulfonamides” (Bioorg Med Chem Lett, 2012).

Active and inactive are the calls of the source. No cut-off for these calls is given here. Where only a bound is given, the exact number is not on record here.

Broadly, the AUC(0-t) is the area under the concentration-time curve up to a stated or last time point. One may read the half-life as the time in which the quantity being followed falls by half. As a reminder, the fraction unbound is free concentration divided by total concentration. A word on the IC50: it is the concentration that gives 50% inhibition. A word on the bioavailability: it is the share of a dose that reaches the circulation, judged against a reference dose that is usually intravenous. For orientation: Cmax means the peak of the concentration-time curve. A word on the AUC(0-inf): it is the area under the concentration-time curve extrapolated to infinity. A word on the clearance: it is the rate of elimination divided by the concentration.

The nature of data set [1]: AUC (0 to last) in in ovariectomized rhesus monkey at 5 mg/kg/day, po. The note with it: female, plasma. Further details: dose 5 mg/kg/day, time 0 - last, route oral. It counts as ADME, organism-based, Macaca mulatta.
A short description of data set [2]: Volume of distribution at steady state in cynomolgus monkey at 2 mg/kg, iv. The note with it: in vivo, read-out: Vdss. Further details: dose 2 mg/kg, route intravenous. The class given is ADME, organism-based, Macaca fascicularis.
The nature of data set [3]: Half life in cynomolgus monkey at 2 mg/kg, po. The class given is ADME, organism-based, Macaca fascicularis. Further details: dose 2 mg/kg, route oral. The note with it: in vivo.
A short description of data set [4]: Fraction unbound in human plasma. It counts as ADME, cell-free.
In the next data set the test system is Rhesus monkey. Put plainly: Induction of early menstruation in ovariectomized rhesus monkey menses induction model at 5 mg/kg/day, po. The class given is functional, organism-based. The note with it: Macaca mulatta.
For data set [5], the target named is T1, Glucocorticoid receptor (Homo sapiens, UniProt P04150).
T1 sequence (P04150 whole entry): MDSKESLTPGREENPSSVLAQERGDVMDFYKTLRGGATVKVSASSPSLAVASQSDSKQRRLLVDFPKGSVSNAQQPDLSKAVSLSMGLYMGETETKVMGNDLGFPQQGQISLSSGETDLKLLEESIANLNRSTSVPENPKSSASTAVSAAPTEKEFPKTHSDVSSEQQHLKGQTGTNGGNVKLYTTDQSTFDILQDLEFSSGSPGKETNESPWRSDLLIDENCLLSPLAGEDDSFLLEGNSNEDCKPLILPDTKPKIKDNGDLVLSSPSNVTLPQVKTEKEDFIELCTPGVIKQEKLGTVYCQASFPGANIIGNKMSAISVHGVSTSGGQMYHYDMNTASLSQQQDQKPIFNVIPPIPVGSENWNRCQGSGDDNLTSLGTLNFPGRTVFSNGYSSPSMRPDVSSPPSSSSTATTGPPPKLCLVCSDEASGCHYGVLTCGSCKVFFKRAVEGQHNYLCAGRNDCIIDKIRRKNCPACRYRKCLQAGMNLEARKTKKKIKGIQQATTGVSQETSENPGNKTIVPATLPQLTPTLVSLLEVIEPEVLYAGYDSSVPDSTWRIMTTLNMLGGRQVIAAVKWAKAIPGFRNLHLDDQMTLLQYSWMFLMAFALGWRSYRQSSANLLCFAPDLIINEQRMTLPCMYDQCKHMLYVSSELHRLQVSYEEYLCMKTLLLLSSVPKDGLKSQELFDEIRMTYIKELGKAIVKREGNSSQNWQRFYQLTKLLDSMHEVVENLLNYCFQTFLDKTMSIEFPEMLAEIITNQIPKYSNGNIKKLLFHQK
Put plainly: Agonist activity at glucocorticoid receptor by cellular reporter gene assay.

Data set [6] is described as follows: Oral bioavailability in cynomolgus monkey at 2 mg/kg. It counts as ADME, organism-based, Macaca fascicularis. The note with it: in vivo.
Data set [7] can be described thus: Cmax in cynomolgus monkey at 2 mg/kg, po. The class given is ADME, organism-based, Macaca fascicularis. Further details: dose 2 mg/kg, route oral. Conditions: in vivo.
Data set [8] is described as follows: AUC (0 to infinity) in rat at 2 mg/kg, iv. It counts as ADME, organism-based. Further details: time infinity, dose 2 mg/kg, route intravenous. Conditions: plasma.
Data set [9] is described as follows: AUC (0 to infinity) in cynomolgus monkey at 2 mg/kg, po. It counts as ADME, organism-based, Macaca fascicularis. Further details: time infinity, dose 2 mg/kg, route oral. The note with it: plasma.
A short description of data set [10]: Half life in rat at 2 mg/kg, iv. The class given is ADME, organism-based. Further details: dose 2 mg/kg, route intravenous. The note with it: in vivo.
The nature of data set [11]: Cmax in rat at 2 mg/kg, po. It counts as ADME, organism-based. Further details: dose 2 mg/kg, route oral. The note with it: in vivo.
Data set [12] is described as follows: Volume of distribution at steady state in rat at 2 mg/kg, iv. It counts as ADME, organism-based. Further details: dose 2 mg/kg, route intravenous. Conditions: in vivo, read-out: Vdss.
A short description of data set [13]: Oral bioavailability in rat at 2 mg/kg. The class given is ADME, organism-based. Conditions: in vivo.
Data set [14] in a line: Half life in cynomolgus monkey at 2 mg/kg, iv. It counts as ADME, organism-based, Macaca fascicularis. Further details: dose 2 mg/kg, route intravenous. The note with it: in vivo.
Data set [15] is described as follows: Half life in rat at 2 mg/kg, po. It counts as ADME, organism-based. Further details: dose 2 mg/kg, route oral. The note with it: in vivo.
Data set [16] in a line: AUC (0 to infinity) in cynomolgus monkey at 2 mg/kg, iv. The class given is ADME, organism-based, Macaca fascicularis. Further details: time infinity, dose 2 mg/kg, route intravenous. Conditions: plasma.
A short description of data set [17]: Clearance in rat at 2 mg/kg, iv. The class given is ADME, organism-based. Further details: dose 2 mg/kg, route intravenous. Conditions: in vivo.
The test system of the next data set is Salmonella typhimurium. As to the kind of experiment: Mutagenicity in Salmonella typhimurium in presence of liver S9 fraction by non-GLP Ames test. The note with it: salmonella enterica subsp. enterica serovar typhimurium. The class given is toxicity, organism-based. In general terms: The Ames test detects mutagens through reverse mutation in bacteria.
Data set [18] in a line: AUC (0 to infinity) in rat at 2 mg/kg, po. The class given is ADME, organism-based. Further details: time infinity, dose 2 mg/kg, route oral. The note with it: plasma.
Data set [19] has as its system Plasma. As to the kind of experiment: Average drug concentration in ovariectomized rhesus monkey plasma at 5 mg/kg/day, po. It counts as ADME, organism-based, Macaca mulatta. Further details: route oral. The note with it: in vivo.
Data set [20] in a line: Fraction unbound in rat plasma. The class given is ADME, cell-free.
The subject of data set [21] is Plasma. Put plainly: Free plasma concentration in ovariectomized rhesus monkey at 5 mg/kg/day, po. The class given is ADME, organism-based, Macaca mulatta. The note with it: in vivo. Further details: route oral.
Data set [22] can be described thus: Cmax in in ovariectomized rhesus monkey at 5 mg/kg/day, po. The class given is ADME, organism-based, Macaca mulatta. Further details: dose 5 mg/kg/day, route oral. Conditions: female, in vivo.
Data set [23] is described as follows: Clearance in cynomolgus monkey at 2 mg/kg, iv. The class given is ADME, organism-based, Macaca fascicularis. Further details: dose 2 mg/kg, route intravenous. The note with it: in vivo.
Data set [24] deals with T2, Mineralocorticoid receptor (Homo sapiens) (UniProt P08235).
T2 sequence (whole entry): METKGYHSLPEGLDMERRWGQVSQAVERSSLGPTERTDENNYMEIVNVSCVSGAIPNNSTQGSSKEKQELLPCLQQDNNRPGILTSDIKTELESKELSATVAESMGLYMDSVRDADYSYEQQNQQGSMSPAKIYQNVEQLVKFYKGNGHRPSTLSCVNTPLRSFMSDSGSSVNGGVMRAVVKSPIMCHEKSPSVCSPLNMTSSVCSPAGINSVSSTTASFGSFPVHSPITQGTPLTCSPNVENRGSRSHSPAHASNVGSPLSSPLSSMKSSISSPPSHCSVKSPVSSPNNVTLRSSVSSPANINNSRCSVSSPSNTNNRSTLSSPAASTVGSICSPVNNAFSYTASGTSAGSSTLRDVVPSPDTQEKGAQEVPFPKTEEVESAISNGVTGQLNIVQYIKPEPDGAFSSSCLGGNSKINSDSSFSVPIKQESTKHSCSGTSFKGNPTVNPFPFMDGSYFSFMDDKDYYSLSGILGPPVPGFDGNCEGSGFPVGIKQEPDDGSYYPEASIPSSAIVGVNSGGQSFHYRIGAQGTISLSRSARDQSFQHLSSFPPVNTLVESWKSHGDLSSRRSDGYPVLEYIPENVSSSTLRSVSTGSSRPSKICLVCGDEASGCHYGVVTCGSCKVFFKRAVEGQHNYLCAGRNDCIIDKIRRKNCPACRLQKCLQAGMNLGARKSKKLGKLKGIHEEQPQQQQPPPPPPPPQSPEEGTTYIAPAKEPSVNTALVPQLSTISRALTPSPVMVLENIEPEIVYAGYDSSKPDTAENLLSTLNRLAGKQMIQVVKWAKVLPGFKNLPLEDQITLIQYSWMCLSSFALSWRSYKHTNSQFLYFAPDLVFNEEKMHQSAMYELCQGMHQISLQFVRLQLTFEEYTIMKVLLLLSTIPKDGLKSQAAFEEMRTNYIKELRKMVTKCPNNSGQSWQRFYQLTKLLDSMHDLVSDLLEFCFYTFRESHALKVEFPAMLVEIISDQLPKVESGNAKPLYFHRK
Put plainly: Antagonist activity at mineralocorticoid receptor at 1 uM by cellular reporter gene assay. The class given is functional. Further details: scale not given: the % may be the effect or the level left. Background: Reporter assays use an easily measured gene product as a stand-in for the process of interest.

Data set [25] deals with T1, Glucocorticoid receptor. As to the kind of experiment: Antagonist activity at glucocorticoid receptor by cellular reporter gene assay. The class given is functional.

In data set [1], `CCS(=O)(=O)Nc1cc(F)c(-c2ccc(C#N)n2C)c(F)c1` displayed an AUC(0-t) of 28500 ng·h/mL. The Vd in [2] stood at 0.3 L/kg; in data set [12] it was 0.5 L/kg. The half-life was 2.7 h in data set [3], 2 h in [10], 2.8 h in data set [14] and 2.3 h in [15]. Further, the fraction unbound was found to be 0.003 in [4] and 0.019 in [20]. Besides, the result in the data set with Rhesus monkey was Active. Further, the IC50 at Glucocorticoid receptor [5] is over 10000 nM. The bioavailability came out at 69% in data set [6] and 98.5% in [13]. Moreover, the Cmax in [7] came out at 5100 ng/mL; in data set [11], 2800 ng/mL; in data set [22] it was 8.8 µM. Besides, the AUC(0-inf) was determined as 13000 ng·h/mL in data set [8], 13700 ng·h/mL in data set [9], 18000 ng·h/mL in [16] and 15200 ng·h/mL in data set [18]. Moreover, the results for the clearance in data set [17] and in data set [23] were 2.6 mL/min/kg and 2 mL/min/kg, respectively. For the same compound, the Activity entry in the data set with Salmonella typhimurium is “Non-toxic”; in data set [24] it was 60%. Also, in the data set with Plasma [19], the Cave is 3.6 µM. For the same compound, the “Cp(f)” value with Plasma [21] was found to be 0.011 µM.
In turn, `COC[C@]1(OC)CC[C@H]2[C@@H]3CCC4=CC(=O)CCC4=C3[C@@H](c3ccc(/C=N/O)cc3)C[C@@]21C` [ASOPRISNIL] yielded an IC50 against Glucocorticoid receptor [25] of 120 nM.
